As a reminder, the EC50 is the concentration giving half of the maximal effect.

For one test, the target named is T1, human FPR2 receptors (Homo sapiens, UniProt P25090).
T1 sequence (P25090 1-351): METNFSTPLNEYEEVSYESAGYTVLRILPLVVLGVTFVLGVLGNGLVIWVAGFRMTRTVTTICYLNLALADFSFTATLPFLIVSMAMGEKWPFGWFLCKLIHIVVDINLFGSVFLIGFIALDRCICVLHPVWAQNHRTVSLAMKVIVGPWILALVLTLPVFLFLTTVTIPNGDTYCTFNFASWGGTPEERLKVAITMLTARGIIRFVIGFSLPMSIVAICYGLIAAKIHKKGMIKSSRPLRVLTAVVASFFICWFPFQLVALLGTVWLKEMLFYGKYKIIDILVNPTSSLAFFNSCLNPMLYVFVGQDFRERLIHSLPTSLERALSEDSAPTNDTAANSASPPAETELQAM
Kind of test: FPR2 cAMP assay in CHO cells overexpressing human FPR2 (HTRF). In kind it is cell-based. The conditions noted are these: CHO cells overexpressing human FPR2; forskolin 5 μM; inhibition of cAMP production; read-out: hFPR2 cAMP2 EC50. From the text:
N-formyl peptide receptors (FPRs) are a family of chemo attractant receptors that facilitate leukocyte response during inflammation. FPRs belong to the seven-transmembrane G protein-coupled receptor superfamily and are linked to inhibitory G-proteins (Gi). Three family members (FPR1, FPR2 and FPR3) have been identified in humans and are predominantly found in myeloid cells with varied distribution and have also been reported in multiple organs and tissues. After agonist binding, the FPRs activate a multitude of physiological pathways, such as intra cellular signaling transduction, Ca^2+ mobilization and transcription. The family interacts with a diverse set of ligands that includes proteins, polypeptides and fatty acid metabolites which activate both pro-inflammatory and pro-resolution downstream responses. FPR2 and FPR1 Cyclic Adenosine Monophosphate (cAMP) Assays were used to measure the in vitro activity of the compounds disclosed in this application.
FPR2 and FPR1 Cyclic Adenosine Monophosphate (cAMP) Assays. A mixture of forskolin (5 μM final for FPR2 or 10 μM final for FPR1) and IBMX (200 μM final) were added to 384-well Proxiplates (Perkin-Elmer) pre-dotted with test compounds in DMSO (1% final) at final concentrations in the range of 0.020 nM to 100 μM. Chinese Hamster Ovary cells (CHO) overexpressing human FPR1 or human FPR2 receptors were cultured in F-12 (Ham's) medium supplemented with 10% qualified FBS, 250 μg/ml zeocin and 300 μg/ml hygromycin (Life Technologies). Reactions were initiated by adding 2,000 human FPR2 cells per well or 4,000 human FPR1 cells per well in Dulbecco's PBS (with calcium and magnesium) (Life Technologies) supplemented with 0.1% BSA (Perkin-Elmer). The reaction mixtures were incubated for 30 min at room temperature. The level of intracellular cAMP was determined using the HTRF HiRange cAMP assay reagent kit (Cisbio) according to manufacturer's instruction. Solutions of cryptate conjugated anti-cAMP and d2 flurorophore-labelled cAMP were made in a supplied lysis buffer separately. Upon completion of the reaction, the cells were lysed with equal volume of the d2-cAMP solution and anti-cAMP solution. After a 1-h room temperature incubation, time-resolved fluorescence intensity was measured using the Envision (Perkin-Elmer) at 400 nm excitation and dual emission at 590 nm and 665 nm. A calibration curve was constructed with an external cAMP standard at concentrations ranging from 1 μM to 0.1 pM by plotting the fluorescent intensity ratio from 665 nm emission to the intensity from the 590 nm emission against cAMP concentrations. The potency and activity of a compound to inhibit cAMP production was then determined by fitting to a 4-parametric logistic equation from a plot of cAMP level versus compound concentrations.
Background: Changes in cAMP serve as a functional read-out for many G protein-coupled receptors.
In the case of `COc1cc(F)c([C@@H]2CNC(=O)[C@H]2Nc2cc(-c3ccc(Cl)cc3)on2)c(F)c1` [Example 21, (3S,4R)-3-{[5-(4-chlorophenyl)-1,2-oxazol-3-yl]amino}-4-(2,6-difluoro-4-methoxyphenyl)pyrrolidin-2-one], the EC50 was 10 nM.

The test is the same for the next values; noted with them: hFPR2 assay; potency bins; read-out: hFPR2 agonist activity EC50.
In the case of `COc1cc(F)c([C@@H]2CNC(=O)[C@H]2Nc2nnc(-c3ccc(C(F)(F)F)cn3)o2)c(F)c1` [Example 14, (3S,4R)-4-(2,6-difluoro-4-methoxyphenyl)-3-({5-[5-(trifluoromethyl)pyridin-2-yl]-1,3,4-oxadiazol-2-yl}amino)pyrrolidin-2-one], the concentration for a half-maximal effect (EC50) fell in the range of 150 to 1000 nM.

Consider `COc1cc(F)c([C@@H]2CNC(=O)[C@H]2Nc2nnc(-c3ccc(Cl)cc3F)o2)c(F)c1` [Example 15, (3S,4R)-3-{[5-(4-chloro-2-fluorophenyl)-1,3,4-oxadiazol-2-yl]amino}-4-(2,6-difluoro-4-methoxyphenyl)pyrrolidin-2-one], for which the EC50 was 150 to 1000 nM.

On to `COc1cc(F)c([C@@H]2CNC(=O)[C@H]2Nc2nnc(-c3ccc(Cl)nc3)o2)c(F)c1` [Example 16, (3S,4R)-3-{[5-(6-chloropyridin-3-yl)-1,3,4-oxadiazol-2-yl]amino}-4-(2,6-difluoro-4-methoxyphenyl)pyrrolidin-2-one], for which the EC50 is no more than 40 nM.

On to `COc1cc(F)c([C@@H]2CNC(=O)[C@H]2Nc2nnc(-c3ccc(C(F)F)cc3)o2)c(F)c1` [Example 17, (3S,4R)-4-(2,6-difluoro-4-methoxyphenyl)-3-({5-[4-(difluoromethyl)phenyl]-1,3,4-oxadiazol-2-yl}amino)pyrrolidin-2-one], for which the EC50 was 40 to 150 nM.

In the case of `COc1cc(F)c([C@@H]2CN(C)C(=O)[C@H]2Nc2nnc(-c3ccc(Cl)cc3)o2)c(F)c1` [Example 20, (3S,4R)-3-{[5-(4-chlorophenyl)-1,3,4-oxadiazol-2-yl]amino}-4-(2,6-difluoro-4-methoxyphenyl)-1-methylpyrrolidin-2-one], the EC50 was no more than 40 nM.

Take `COc1cc(F)c([C@@H]2CNC(=O)[C@H]2Nc2cc(-c3ccc(OC(F)(F)F)cc3)on2)c(F)c1` [Example 23, (3S,4R)-4-(2,6-difluoro-4-methoxyphenyl)-3-({5-[4-(trifluoromethoxy)phenyl]-1,2-oxazol-3-yl}amino)pyrrolidin-2-one]: the EC50 is no more than 40 nM.

On to `COc1cc(F)c([C@@H]2CNC(=O)[C@H]2Nc2ncc(-c3ccc(Cl)cc3)o2)c(F)c1` [Example 24, (3S,4R)-3-{[5-(4-chlorophenyl)-1,3-oxazol-2-yl]amino}-4-(2,6-difluoro-4-methoxyphenyl)pyrrolidin-2-one], for which the EC50 was 150 to 1000 nM.

Regarding `COc1cc(F)c([C@@H]2CNC(=O)[C@H]2Nc2nnc(C3CCC(F)(F)CC3)o2)c(F)c1` [Example 25, (3S,4R)-4-(2,6-difluoro-4-methoxyphenyl)-3-{[5-(4,4-difluorocyclohexyl)-1,3,4-oxadiazol-2-yl]amino}pyrrolidin-2-one], the EC50 was in the range of 150 to 1000 nM.

`COc1cc(F)c([C@@H]2CNC(=O)[C@H]2Nc2nnc(-c3ccc([S+]([O-])C(F)(F)F)cc3)o2)c(F)c1` (stereo partly drawn) [Example 26, (3S,4R)-4-(2,6-difluoro-4-methoxyphenyl)-3-{[5-(4-trifluoromethanesulfinylphenyl)-1,3,4-oxadiazol-2-yl]amino}pyrrolidin-2-one]: the EC50 fell in the range of 150 to 1000 nM.

Consider `COc1cc(F)c([C@@H]2CNC(=O)[C@H]2Nc2nnc(-c3ccc(SC(F)(F)F)cc3)s2)c(F)c1` [Example 29, (3S,4R)-4-(2,6-difluoro-4-methoxyphenyl)-3-[(5-{4-[(trifluoromethyl)sulfanyl]phenyl}-1,3,4-thiadiazol-2-yl)amino]pyrrolidin-2-one], for which the EC50 is 40 to 150 nM.

Consider `COc1cc(F)c([C@@H]2CNC(=O)[C@H]2Nc2nnc(-c3ccc(OC(F)(F)F)cc3)s2)c(F)c1` [Example 30, (3S,4R)-4-(2,6-difluoro-4-methoxyphenyl)-3-({5-[4-(trifluoromethoxy)phenyl]-1,3,4-thiadiazol-2-yl}amino)pyrrolidin-2-one], for which the EC50 lay within 40 to 150 nM.

For `COc1cc(F)c([C@@H]2CNC(=O)[C@H]2Nc2nnc(-c3ccc(Cl)nc3)s2)c(F)c1` [Example 31, (3S,4R)-3-{[5-(6-chloropyridin-3-yl)-1,3,4-thiadiazol-2-yl]amino}-4-(2,6-difluoro-4-methoxyphenyl)pyrrolidin-2-one], the EC50 lay within 40 to 150 nM.

With `COc1cc(F)c([C@@H]2CNC(=O)[C@H]2Nc2nnc(-c3ccc(F)cc3)s2)c(F)c1` [Example 32, (3S,4R)-4-(2,6-difluoro-4-methoxyphenyl)-3-{[5-(4-fluorophenyl)-1,3,4-thiadiazol-2-yl]amino}pyrrolidin-2-one], the EC50 is 40 to 150 nM.

Consider `COc1cc(F)c([C@@H]2CNC(=O)[C@H]2Nc2nnc(-c3ccc(C(F)(F)F)nc3)s2)c(F)c1` [Example 33, (3S,4R)-4-(2,6-difluoro-4-methoxyphenyl)-3-({5-[6-(trifluoromethyl)pyridin-3-yl]-1,3,4-thiadiazol-2-yl}amino)pyrrolidin-2-one], for which the EC50 was in the range of 150 to 1000 nM.

With `CCCCOc1ccc(-c2nnc(N[C@@H]3C(=O)NC[C@H]3c3c(F)cc(OC)cc3F)o2)cc1` [Example 34, (3S,4R)-3-{[5-(4-butoxyphenyl)-1,3,4-oxadiazol-2-yl]amino}-4-(2,6-difluoro-4-methoxyphenyl)pyrrolidin-2-one], the EC50 was in the range of 40 to 150 nM.

As to `COc1cc(F)c([C@@H]2CNC(=O)[C@H]2Nc2nnc(-c3ccc(Oc4ccccc4)cc3)o2)c(F)c1` [Example 35, (3S,4R)-4-(2,6-difluoro-4-methoxyphenyl)-3-{[5-(4-phenoxyphenyl)-1,3,4-oxadiazol-2-yl]amino}pyrrolidin-2-one], the EC50 was no more than 40 nM.

With `COc1cc(F)c([C@@H]2CNC(=O)[C@H]2Nc2nnc(-c3ccc(OC(F)F)cc3)o2)c(F)c1` [Example 37, (3S,4R)-4-(2,6-difluoro-4-methoxyphenyl)-3-({5-[4-(difluoromethoxy)phenyl]-1,3,4-oxadiazol-2-yl}amino)pyrrolidin-2-one], the EC50 fell in the range of 150 to 1000 nM.

With `COc1cc(F)c([C@@H]2CNC(=O)[C@H]2Nc2nnc(-c3ccc(C4CC4)cc3)o2)c(F)c1` [Example 38, (3S,4R)-3-{[5-(4-cyclopropylphenyl)-1,3,4-oxadiazol-2-yl]amino}-4-(2,6-difluoro-4-methoxyphenyl)pyrrolidin-2-one], the EC50 was 150 to 1000 nM.

Take `COc1cc(F)c([C@@H]2CNC(=O)[C@H]2Nc2nnc(-c3ccc(C(C)C)cc3)o2)c(F)c1` [Example 39, (3S,4R)-4-(2,6-difluoro-4-methoxyphenyl)-3-({5-[4-(propan-2-yl)phenyl]-1,3,4-oxadiazol-2-yl}amino)pyrrolidin-2-one]: the concentration for a half-maximal effect (EC50) lay within 150 to 1000 nM.

Turning to `COc1cc(F)c([C@@H]2CNC(=O)[C@H]2Nc2nnc(-c3ccc(Oc4ccc(Cl)cc4)cc3)o2)c(F)c1` [Example 40, (3S,4R)-3-({5-[4-(4-chlorophenoxy)phenyl]-1,3,4-oxadiazol-2-yl}amino)-4-(2,6-difluoro-4-methoxyphenyl)pyrrolidin-2-one], the EC50 was no more than 40 nM.

As to `COc1cc(F)c([C@@H]2CNC(=O)[C@H]2Nc2nnc(C3CC3c3ccc(Cl)cc3)o2)c(F)c1` (stereo partly drawn) [Example 41, (3S,4R)-3-({5-[2-(4-chlorophenyl)cyclopropyl]-1,3,4-oxadiazol-2-yl}amino)-4-(2,6-difluoro-4-methoxyphenyl)pyrrolidin-2-one], the concentration for a half-maximal effect (EC50) was no more than 40 nM.

The values above are taken from US12281108B2, “Pyrrolidinone derivatives as formyl peptide 2 receptor agonists” (BRISTOL-MYERS SQUIBB COMPANY, priority 2018, dated 2025).
